Patent publication US8802597B2, “Herbicidal pyrimidines” (E I du Pont de Nemours and Company, priority 2003, dated 2014)

Legend:
Type in all cases: in vivo
[1] = test system: barnyardgrass (Echinochloa crus-galli); assay: Test C flooded paddy test; conditions: Flood
Protocol: (§1) At the same time, plants selected from these crop and weed species and also winter barley (Hordeum vulgare), blackgrass (Alopecurus myosuroides), canarygrass (Phalaris minor), chickweed (Stellaria media), downy brome (Bromus tectorum), green foxtail (Setaria viridis), Italian ryegrass (Lolium multiflorum), wheat (Triticum aestivum), wild oat (Avena fatua) and windgrass (Apera spica-venti) were treated with postemergence applications of some of the test chemicals formulated in the same manner. Plants ranged in height from 2 to 18 cm (1- to 4-leaf stage) for postemergence treatments. Plant species in the flooded paddy test consisted of rice (Oryza sativa), umbrella sedge (Cyperus difformis), duck salad (Heteranthera limosa) and barnyardgrass (Echinochloa crus-galli) grown to the 2-leaf stage for testing. Treated plants and controls were maintained in a greenhouse for 12 to 14 days, after which time all species were compared to controls and visually evaluated. Plant response ratings, summarized in Table C, are based on a scale of 0 to 100 where 0 is no effect and 100 is complete control. A dash (-) response means no test result.

[2] = test system: umbrella sedge (Cyperus difformis); assay: Test C flooded paddy test; conditions: Flood, scale 0 to 100
Protocol: as §1

rice (Oryza sativa) [3] = assay: Test C flooded paddy test; conditions: Flood, scale 0 to 100
Protocol: as §1

[4] = test system: duck salad (Heteranthera limosa); assay: Test C flooded paddy test; conditions: Flood, scale 0 to 100
Protocol: as §1

[5] = test system: pigweed (Amaranthus retroflexus); assay: Test B pre/postemergence
Procedure, shortened: (§2)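 Formulation: non-phytotoxic solvent blend with surfactant. Timing: preemergence on seeds, postemergence at 1- to 4-leaf (2–18 cm). Assessment: visual, 0–100 against controls, after 13–15 days' greenhouse growth.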

[6] = test system: morningglory (Ipomoea coccinea); assay: Test B pre/postemergence
Procedure, shortened: as §2

corn (Zea mays) = assay: Test B pre/postemergence
Procedure, shortened: as §2

[7] = test system: barnyardgrass (Echinochloa crus-galli); assay: Test B pre/postemergence
Procedure, shortened: as §2

[8] = test system: velvetleaf (Abutilon theophrasti); assay: Test B pre/postemergence
Procedure, shortened: as §2

[9] = test system: crabgrass (Digitaria sanguinalis); assay: Test B pre/postemergence
Procedure, shortened: as §2

[10] = test system: wheat (Triticum aestivum); assay: Test B pre/postemergence
Procedure, shortened: as §2

[11] = test system: cocklebur (Xanthium strumarium); assay: Test B pre/postemergence
Procedure, shortened: as §2

[12] = test system: giant foxtail (Setaria faberii); assay: Test B pre/postemergence
Procedure, shortened: as §2

[13] = test system: Surinam grass (Brachiaria decumbens); assay: Test B pre/postemergence
Procedure, shortened: as §2

[14] = test system: lambsquarters (Chenopodium album); assay: Test B pre/postemergence
Procedure, shortened: as §2

wild oat (Avena fatua) = assay: Test B postemergence
Procedure, shortened: as §2

[15] = test system: blackgrass (Alopecurus myosuroides); assay: Test B postemergence
Procedure, shortened: as §2

[16] = test system: barnyardgrass (Echinochloa crus-galli); assay: Test B flooded paddy test; conditions: Flood, 1000 g ai/ha; scale 0 (no effect) to 100 (complete control)
Procedure, shortened: (§3)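 Visual injury scoring (0 = no effect, 100 = complete control) versus controls made 13 to 15 days after treatment in the greenhouse. Test species were grown in flooded paddy to the 2-leaf stage: rice, barnyardgrass, umbrella sedge, duck salad.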

[17] = test system: umbrella sedge (Cyperus difformis); assay: Test B flooded paddy test; conditions: Flood, 1000 g ai/ha; scale 0 to 100
Procedure, shortened: as §3

rice (Oryza sativa) [18] = assay: Test B flooded paddy test; conditions: Flood, 1000 g ai/ha; scale 0 to 100
Procedure, shortened: as §3

[19] = test system: duck salad (Heteranthera limosa); assay: Test B flooded paddy test; conditions: Flood, 1000 g ai/ha; scale 0 to 100
Procedure, shortened: as §3

[20] = Postemergence, 125 g ai/ha, scale 0 to 100 (0 no effect, 100 complete control)
[21] = Postemergence, 500 g ai/ha, scale 0 to 100
[22] = Preemergence, 125 g ai/ha, scale 0 to 100 (0 no effect, 100 complete control)
[23] = Preemergence, 500 g ai/ha, scale 0 to 100 (0 no effect, 100 complete control)
[24] = 125 g ai/ha, scale 0 to 100 (0 no effect, 100 complete control)

CC(C)OC(=O)c1nc(C2CC2)nc(N)c1Br [Compound 14]
Plant response rating, Barnyardgrass ([1]; 62 g ai/ha, scale 0 to 100): 0 | Plant response rating, Barnyardgrass ([1]; 125 g ai/ha, scale 0 to 100): 0 | Plant response rating, Barnyardgrass ([1]; 250 g ai/ha, scale 0 to 100): 0 | Plant response rating, Barnyardgrass ([1]; 500 g ai/ha, scale 0 to 100 (0 no effect, 100 complete control)): 45 | Plant response rating, Sedge, Umbrella ([2]; 62 g ai/ha): 0 | Plant response rating, Sedge, Umbrella ([2]; 125 g ai/ha): 0 | Plant response rating, Sedge, Umbrella ([2]; 250 g ai/ha): 0 | Plant response rating, Sedge, Umbrella ([2]; 500 g ai/ha): 30 | Plant response rating, Rice (rice (Oryza sativa) [3]; 62 g ai/ha): 0 | Plant response rating, Rice (rice (Oryza sativa) [3]; 125 g ai/ha): 0 | Plant response rating, Rice (rice (Oryza sativa) [3]; 250 g ai/ha): 0 | Plant response rating, Rice (rice (Oryza sativa) [3]; 500 g ai/ha): 0 | Plant response rating, Ducksalad ([4]; 62 g ai/ha): 0 | Plant response rating, Ducksalad ([4]; 125 g ai/ha): 40 | Plant response rating, Ducksalad ([4]; 250 g ai/ha): 45 | Plant response rating, Ducksalad ([4]; 500 g ai/ha): 55 | Pigweed plant response rating [5, 20]: 80 | Plant response rating, Pigweed [5, 21]: 90 | Plant response rating, Pigweed [5, 22]: 80 | Pigweed plant response rating [5, 23]: 90 | Morningglory plant response rating [6, 20]: 100 | Plant response rating, Morningglory [6, 21]: 100 | Plant response rating, Morningglory [6, 22]: 70 | Morningglory plant response rating [6, 23]: 100 | Corn plant response rating (corn (Zea mays); [20]): 30 | Plant response rating, Corn (corn (Zea mays); [21]): 70 | Plant response rating, Corn (corn (Zea mays); [22]): 0 | Corn plant response rating (corn (Zea mays); [23]): 70 | Barnyardgrass plant response rating [7, 20]: 30 | Plant response rating, Barnyardgrass [7, 21]: 90 | Plant response rating, Barnyardgrass [7, 22]: 10 | Barnyardgrass plant response rating [7, 23]: 80 | Velvetleaf plant response rating [8, 20]: 50 | Plant response rating, Velvetleaf [8, 21]: 70 | Plant response rating, Velvetleaf [8, 22]: 60 | Velvetleaf plant response rating [8, 23]: 80 | Crabgrass plant response rating [9, 20]: 10 | Plant response rating, Crabgrass [9, 21]: 30 | Plant response rating, Crabgrass [9, 22]: 10 | Crabgrass plant response rating [9, 23]: 80 | Wheat plant response rating [10, 20]: 20 | Plant response rating, Wheat [10, 21]: 50 | Plant response rating, Wheat [10, 22]: 40 | Wheat plant response rating [10, 23]: 50 | Cocklebur plant response rating [11, 20]: 50 | Plant response rating, Cocklebur [11, 21]: 70 | Plant response rating, Cocklebur [11, 22]: 60 | Cocklebur plant response rating [11, 23]: 80 | Foxtail, Giant plant response rating [12, 20]: 20 | Plant response rating, Foxtail, Giant [12, 21]: 50 | Plant response rating, Foxtail, Giant [12, 22]: 30 | Foxtail, Giant plant response rating [12, 23]: 80 | Surinam Grass plant response rating [13, 20]: 10 | Plant response rating, Surinam Grass [13, 21]: 50 | Plant response rating, Surinam Grass [13, 22]: 40 | Surinam Grass plant response rating [13, 23]: 80 | Lambsquarters plant response rating [14, 20]: 100 | Plant response rating, Lambsquarters [14, 21]: 100 | Plant response rating, Lambsquarters [14, 22]: 90 | Lambsquarters plant response rating [14, 23]: 100 | Oat, Wild plant response rating (wild oat (Avena fatua); [24]): 20 | Plant response rating, Oat, Wild (wild oat (Avena fatua); 500 g ai/ha, scale 0 to 100): 70 | Blackgrass plant response rating [15, 24]: 30 | Plant response rating, Blackgrass ([15]; 500 g ai/ha, scale 0 to 100): 60 | Plant response rating, Barnyardgrass [16]: 80 | Plant response rating, Sedge, Umbrella [17]: 50 | Plant response rating, Rice (rice (Oryza sativa) [18]): 20 | Plant response rating, Ducksalad [19]: 80
